# Assay results: patent US20240269158A1, “THERAPEUTIC AGENTS AND METHODS FOR TREATMENT OF BARTONELLOSIS” (THE ADMINISTRATORS OF THE TULANE EDUCATIONAL FUND, priority 2021, published 2024)
# Like-named read-outs stand apart in the source and are kept apart here.
# How the values were obtained:
# [1] = test system: B. henselae and B. vinsonii; assay: Live/dead BacLight staining; format: cell-based, Bartonella; conditions: 10 μg/ml
# Method: To determine the viability of the bacteria grown in liquid culture media, LIVE/DEAD BacLight™ Bacterial viability kit for microscopy (ThermoFisher, L7012) was used according to the manufacturer's protocol. Briefly, 7-day old liquid culture media was used for the determination of the viability. Initially, bacteria were diluted down to an optical density (OD) of 0.1 using the respective liquid culture media. 1 ml of 0.1 OD bacterial culture was then transferred into a 2 ml microcentrifuge tube and centrifuged at 7000 rpm for 10 min. After removing the supernatant, the pellet was resuspended in 1 ml of 0.85% NaCl and bacteria was pelleted again. After three washes, bacteria were resuspended in 1 ml of 0.85% NaCl and incubated with 1 μl of green-fluorescent nucleic acid dye (SYTO9) and 1 μl of red-fluorescent nucleic acid dye (PI) for 15 minutes. All the incubations were performed at room temperature and in the dark. After 15 minutes of incubation with both the dyes, bacteria were visualized under fluorescence microscopy and images were acquired using Nikon NIS elements software. Later, mean fluorescence intensity of both the SYTO9 and PI was measured using the Nikon elements software. Mean fluorescence values were acquired from a total of 10 images per experimental condition. To obtain dead cell counts, bacteria were treated with 70% isopropanol and incubated for 1 hr, while the sample was mixed for every 15 min and stained as above. Additionally, the entire staining protocol was repeated by staining the bacteria with PI first and then with SYTO9 both on dead and live bacteria and the fluorescence values were recorded accordingly. However, in the staining of therapeutic agent treated bacteria, both the dyes were pre-mixed into 1 ml of sterile-filtered distilled water, as previously described and 10 μl of the mixture was added into each well, incubated and visualized as described above.
# Bacteria were stained with the live/dead BacLight™ kit to determine the viability of the bacteria before every experiment. […] Viability was also measured after 96 hours on control, untreated bacteria. […]
# B. henselae = assay: Cell-free, liquid culture MBC assay; format: cell-based, Bartonella henselae; conditions: 96 hrs, plated on blood agar
# Method: (§1) The B. henselae strains used were San Antonio 2, 267HO04, a human clinical isolate and B. vinsonii subsp. berkhoffii. Both the bacteria were initially grown on tryptic soy agar (TSA) supplemented with 5% defibrinated sheep blood plates that were either pre-made (Remel, R01198) or homemade, in a humidified atmosphere at 37° C. with 5% CO2 for 7 days. For the preparation of liquid cultures, an individual well-grown colony from the plate was resuspended in 15 ml Falcon tubes containing 3 mL of either Schneider's insect media supplemented with 10% FBS, or Grace's insect media (Gibco, 11605-094) supplemented with 10% FBS, or BAPGM serum-free liquid media. The cultures grew for 7 more days in the atmosphere as above without shaking. The number of viable bacteria was determined by either plating serial dilutions of the culture on plates for CFU or by live/dead staining. Before every experiment, bacteria were mixed well and passed through 22-gauge needle to break large clumps of bacteria.
# (§2) Briefly, the bacterial culture that was treated with therapeutic agents for 96 hrs was collected into a 1.5 ml microcentrifuge tubes and centrifuged at 7000 rpm for 10 min. The supernatant was removed, and the bacterial pellet was washed with 1×PBS twice. The bacterial pellet was then resuspended in 100 μL of 1×PBS, plated onto blood agar plates and incubated at 37° C. with 5% CO2 for about 14 days. This assay was repeated three times with all the 6 different antibiotics (azlocillin, azithromycin, ceftriaxone, doxycycline, gentamicin and ampicillin) and at different concentrations.
# (§3) Therapeutic agent stocks were prepared in the following solvents: 10 mg/ml of ceftriaxone (USP), doxycycline (Fisher scientific, D9891-1G), gentamicin (Fisher scientific, 1405-41-0), ampicillin (Fisher scientific, 69-52-3) and azlocillin (Flightpath) in sterile cell culture grade water, whereas 5 mg/ml of azithromycin (Sigma, PZ0007-5MG) was dissolved in sterile cell culture grade DMSO. Antibiotics were then aliquoted and stored at either −80° C. or −20° C. until further use. On the day of assay, these stock concentrations were diluted to 1 mg/ml and 100 μg/ml in the respected bacterial culture media for MIC and cell-free, liquid culture MBC assays. For the DH82 cell-based MBC assay, antibiotics were diluted in EMEM media supplemented with 15% heat inactivated FBS.
# For this assay, both B. henselae and B. vinsonii were grown in Grace's insect media and were tested against all of the 6 antibiotics (ceftriaxone, doxycycline, gentamicin, azithromycin, azlocillin, ampicillin).
# B. vinsonii = assay: Cell-free, liquid culture MBC assay; format: cell-based, B. vinsonii subsp. berkhoffii; conditions: 96 hrs, plated on blood agar
# Method: as §1, §2, §3
# For this assay, both B. henselae and B. vinsonii were grown in Grace's insect media and were tested against all of the 6 antibiotics (ceftriaxone, doxycycline, gentamicin, azithromycin, azlocillin, ampicillin). […] However, ceftriaxone, gentamicin, azithromycin, and azlocillin were all bactericidal and completely eliminated the growth at concentrations below 10 µg/ml. Table 2 provides comparison of MBCs for B. henselae and B. vinsonii strains in cell-free liquid culture medium determined by incubating the bacteria with antibiotics in a 96-well plate and plating on tryptic soy agar supplemented with 5% sheep blood. Additionally, MBC for B. henselae determined by DH82 cell-based assay (right column) is provided.
# [2] = Bartonella henselae, read-out: MBC
Molecule,live/dead staining signal of treated bacteria [1],MBC (B. henselae; [2]) [µg/mL],MBC (B. vinsonii; read-out: MBC) [µg/mL],MBC (B. henselae) [µg/mL],MBC (B. vinsonii) [µg/mL]
"CO/N=C(\C(=O)N[C@@H]1C(=O)N2C(C(=O)O)=C(CSc3nc(=O)c(=O)[nH]n3C)CS[C@H]12)c1csc(N)n1 [Ceftriaxone, ceftriaxone]",showed only SYTO9 signal,2 to 4,0.5 to 1,–,–
"CC1(C)S[C@@H]2[C@H](NC(=O)[C@H](NC(=O)N3CCNC3=O)c3ccccc3)C(=O)N2[C@H]1C(=O)O [Azlocillin, azlocillin]",showed only SYTO9 signal,1 to 2,0.25 to 0.5,–,–
gentamicin,–,–,–,2.0 to 4.0,4.0 to 8.0
"CC[C@H]1OC(=O)[C@H](C)[C@@H](O[C@H]2C[C@@](C)(OC)[C@@H](O)[C@H](C)O2)[C@H](C)[C@@H](O[C@@H]2O[C@H](C)C[C@H](N(C)C)[C@H]2O)[C@](C)(O)C[C@@H](C)CN(C)[C@H](C)[C@@H](O)[C@]1(C)O [Azithromycin, azithromycin]",showed only SYTO9 signal,5 to 10,2 to 5,–,–
